In ChEMBL document CHEMBL1155207, “Palbinone and triterpenes from Moutan Cortex (Paeonia suffruticosa, Paeoniaceae) stimulate glucose uptake and glycogen synthesis via activation of AMPK in insulin-resistant human HepG2 Cells” (Bioorg Med Chem Lett, 2009) one finds viability and Activity data, which are given here for 7 compounds.

The source made the active and inactive calls. The rule behind the calls is not given here.

A short description of data set [1]: Cytotoxicity against human HepG2 cells assessed as cell survival at 100 uM after 24 hrs by MTT assay. As to conditions: read-out: Survival. It counts as cell-based. In general terms: Tetrazolium dyes change colour on reduction, which living cells bring about.
Data set [2] has as its system HepG2. Nature of the data set: Increase in glycogen synthesis in human HepG2 cells assessed as incorporation of [14C]glucose in to cellular glycogen pools at 10 uM after 60 mins in presence of 33 mM glucose. It counts as functional, cell-based.
Data set [3] can be described thus: Cytotoxicity against human HepG2 cells assessed as cell survival at 10 uM after 24 hrs by MTT assay. The class given is cell-based. As to conditions: read-out: Survival.
A short description of data set [4]: Cytotoxicity against human HepG2 cells assessed as cell survival at 5 uM after 24 hrs by MTT assay. The conditions noted are these: read-out: Survival. It counts as cell-based.
Data set [5] has as its target Glycogen synthase kinase-3 beta (Homo sapiens) (UniProt P49841). Nature of the data set: Induction of GSK3-beta phosphorylation in human HepG2 cells at 10 uM by Western blot analysis in presence of 33 mM glucose. It counts as cell-based. (In general: In western blotting, separated proteins are transferred to a membrane and probed.)
Data set [6] can be described thus: Cytotoxicity against human HepG2 cells assessed as cell survival at 20 uM after 24 hrs by MTT assay. The class given is cell-based. The conditions noted are these: read-out: Survival.
The target in data set [7] is T1, AMP-activated protein kinase, AMPK (Homo sapiens) (UniProt P54646+O43741+P54619+Q9UGJ0+Q9Y478+Q13131+Q9UGI9). Nature of the data set: Induction of AMPK phosphorylation in human HepG2 cells at 10 uM by Western blot analysis in presence of 33 mM glucose. The class given is cell-based.
Data set [8] deals with HepG2. Nature of the data set: Induction of glucose uptake in human HepG2 cells at 10 uM in presence of 33 mM […] by scintillation counting. It counts as functional, cell-based.
Data set [9] deals with HepG2. Nature of the data set: Induction of acetyl-coA carboxylase phosphorylation in human HepG2 cells by Western blot analysis in presence of 33 mM glucose. The class given is cell-based.
Data set [10] has as its target Glycogen synthase kinase-3 beta (Homo sapiens) (UniProt P49841). Nature of the data set: Induction of GSK3-beta phosphorylation in human HepG2 cells by Western blot analysis in presence of 33 mM glucose. It counts as cell-based.
Data set [11] concerns HepG2. Nature of the data set: Increase in glycogen synthesis in human HepG2 cells assessed as incorporation of [14C]glucose in to cellular glycogen pools at 1 uM after 60 mins in presence of 33 mM glucose. The class given is functional, cell-based.
The target in data set [12] is T1, AMP-activated protein kinase, AMPK (Homo sapiens). Nature of the data set: Induction of AMPK phosphorylation in human HepG2 cells by Western blot analysis in presence of 33 mM glucose. The class given is cell-based.
The test system of data set [13] is HepG2. Nature of the data set: Induction of glucose uptake in human HepG2 cells in presence of 33 mM […] by scintillation counting. The class given is functional, cell-based.

Sequence of Glycogen synthase kinase-3 beta (Homo sapiens) (P49841 whole entry, looked up): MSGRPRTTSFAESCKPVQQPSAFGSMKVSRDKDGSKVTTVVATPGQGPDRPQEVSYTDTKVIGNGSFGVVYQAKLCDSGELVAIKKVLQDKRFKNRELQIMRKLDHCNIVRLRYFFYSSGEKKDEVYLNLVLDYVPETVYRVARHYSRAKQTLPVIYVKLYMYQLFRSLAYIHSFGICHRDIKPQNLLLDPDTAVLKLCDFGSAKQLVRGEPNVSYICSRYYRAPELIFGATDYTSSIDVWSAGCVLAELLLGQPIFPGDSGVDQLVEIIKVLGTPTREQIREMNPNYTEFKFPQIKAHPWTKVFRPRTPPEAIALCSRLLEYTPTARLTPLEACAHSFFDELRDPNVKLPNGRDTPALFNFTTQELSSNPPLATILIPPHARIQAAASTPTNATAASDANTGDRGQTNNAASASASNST

With `C=C1CC[C@]2(C(=O)O)CC[C@]3(C)C(=CC[C@@H]4[C@@]5(C)CC[C@H](O)[C@@](C)(CO)[C@@H]5CC[C@]43C)[C@@H]2C1`, the viability at 24 h, 100 µM in data set [1] came out at 65%. Also, the result (with HepG2 [2]; in data set [5]; in data set [7]; in the data set on HepG2 [8]) was Active. For the same compound, the viability at 24 h, 10 µM in data set [3] is 96.7%. The viability at 24 h, 5 µM in data set [4] was found to be 100%. Also, the viability at 24 h, 20 µM in data set [6] is 84.6%.
Take `CC[C@H](CC[C@@H](C)[C@H]1CC[C@H]2[C@@H]3CC=C4C[C@@H](O)CC[C@]4(C)[C@H]3CC[C@]12C)C(C)C` [BETA-SITOSTEROL]: in data set [1], the viability at 24 h, 100 µM came to 57.8%. The result (in the data set with HepG2 [2]; in data set [5]; in data set [7]; with HepG2 [8]) was Active. For the same compound, the viability at 24 h, 10 µM in data set [3] was 99.7%. Besides, the viability at 24 h, 5 µM in data set [4] was 98.8%. For the same compound, in [6], the viability at 24 h, 20 µM is 82.3%.
`C=C(C)[C@@H]1CC[C@]2(C(=O)O)CC[C@]3(C)[C@H](CC[C@@H]4[C@@]5(C)CC[C@H](O)C(C)(C)[C@@H]5CC[C@]43C)[C@@H]12` [BETULINIC ACID]: in data set [1], the viability at 24 h, 100 µM came to 52.9%. Besides, the result (in the data set on HepG2 [2]; in data set [5]; in data set [7]; in the data set on HepG2 [8]) was Active. Further, in [3], the viability at 24 h, 10 µM was 91.3%. For the same compound, in data set [4], the viability at 24 h, 5 µM stood at 99.6%. Further, the viability at 24 h, 20 µM in data set [6] worked out at 81.2%.
Take `CC1(C)CC[C@]2(C(=O)O)CC[C@]3(C)C(=CC[C@@H]4[C@@]5(C)CC[C@H](O)C(C)(C)[C@@H]5CC[C@]43C)[C@@H]2C1` [OLEANOLIC_ACID]: the viability at 24 h, 100 µM in [1] is 54.1%. Also, the outcome (in the data set with HepG2 [2]; in data set [5]; in [7]; in the data set on HepG2 [8]) was Active. Also, the viability at 24 h, 10 µM in data set [3] turned out to be 99.9%. The viability at 24 h, 5 µM in [4] amounted to 97.8%. Moreover, in data set [6], the viability at 24 h, 20 µM is 82.4%.
In the case of `CC1(C)[C@@H](O)CC[C@]2(C)[C@H]3C=CC4=C(O)C(=O)C(=O)[C@@]4(C)[C@]3(C)CC[C@@H]12` [PALBINONE], the Activity entry (in the data set on HepG2 [9]; in data set [10]; in [12]; with HepG2 [13]) was “Dose-dependent effect” each time. Besides, the viability at 24 h, 100 µM in data set [1] turned out to be 41.6%. The result (in the data set with HepG2 [2]; with HepG2 [11]; in data set [5]; in data set [7]; in the data set with HepG2 [8]) was Active. In data set [3], the viability at 24 h, 10 µM was found to be 99.8%. For the same compound, the viability at 24 h, 5 µM in [4] came to 98.7%. Moreover, the viability at 24 h, 20 µM in [6] was determined as 81.5%.
Turning to `CC[C@H](CC[C@@H](C)[C@H]1CC[C@H]2[C@@H]3CC=C4C[C@@H](O[C@@H]5O[C@H](CO)[C@@H](O)[C@H](O)[C@H]5O)CC[C@]4(C)[C@H]3CC[C@]12C)C(C)C` [SITOGLUSIDE], the viability at 24 h, 100 µM in data set [1] was 66.3%. For the same compound, the result (in the data set with HepG2 [2]; in data set [5]; in [7]; with HepG2 [8]) was Active. Moreover, the viability at 24 h, 10 µM in [3] is 92.8%. Moreover, in [4], the viability at 24 h, 5 µM turned out to be 99.9%. The viability at 24 h, 20 µM in [6] amounted to 82.7%.
For the compound `C[C@H]1[C@H](C)CC[C@]2(C(=O)O)CC[C@]3(C)C(=CC[C@@H]4[C@@]5(C)CC[C@H](O)C(C)(C)[C@@H]5CC[C@]43C)[C@H]12` [URSOLIC ACID], in [1], the viability at 24 h, 100 µM came to 55.8%. Moreover, the outcome (in the data set with HepG2 [2]; in data set [5]; in data set [7]; in the data set with HepG2 [8]) was Active. The viability at 24 h, 10 µM in data set [3] stood at 99.2%. Besides, the viability at 24 h, 5 µM in data set [4] is 97.1%. Further, the viability at 24 h, 20 µM in data set [6] is 82%.
